Laboratory results published in patent US10155742B2, “Halofuginol derivatives and their use in cosmetic and pharmaceutical compositions” (President and Fellows of Harvard College, priority 2012, dated 2018).

Columns and labels:
mTORC1 signaling in MEFs = test: mTORC1 pathway phosphorylation by Western blot; assay type: cell-based, mouse; conditions: 100 nM HF, FIG. 16
Description: MEFs growing in DME/10% FCS were treated with 100 nM HF or 0.5 μM rapamycin and analyzed by Western blot for phosphorylation of component of the mTor signaling pathway.

[1] = system: translation in rabbit reticulocyte lysate (RRL); test: In vitro translation assay in rabbit reticulocyte lysate (RRL)
[2] = system: prolyl-tRNA charging in the RRL system; test: tRNA charging in RRL (14C Pro or 35S Met incorporation into tRNA); conditions: FIG. 2D
[3] = target: T1, prolyl tRNA synthetase domain of human EPRS (ProRS) (Homo sapiens, UniProt P07814); conditions: 3H Pro incorporation into tRNA
T1 sequence (P07814 998-1512 limits assumed): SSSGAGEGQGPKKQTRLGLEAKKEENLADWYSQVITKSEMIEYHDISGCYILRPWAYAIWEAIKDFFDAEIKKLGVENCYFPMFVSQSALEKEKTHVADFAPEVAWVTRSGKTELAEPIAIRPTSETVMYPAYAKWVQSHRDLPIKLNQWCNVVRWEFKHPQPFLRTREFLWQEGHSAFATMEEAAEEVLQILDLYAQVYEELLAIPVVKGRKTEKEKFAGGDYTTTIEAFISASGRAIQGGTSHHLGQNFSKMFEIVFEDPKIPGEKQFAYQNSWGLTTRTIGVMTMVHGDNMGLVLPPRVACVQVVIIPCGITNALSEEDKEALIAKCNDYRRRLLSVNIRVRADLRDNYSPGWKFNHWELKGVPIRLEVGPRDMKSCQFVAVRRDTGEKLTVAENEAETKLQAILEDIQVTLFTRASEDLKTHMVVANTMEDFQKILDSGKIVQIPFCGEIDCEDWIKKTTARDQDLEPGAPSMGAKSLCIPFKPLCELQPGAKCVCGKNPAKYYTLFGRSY
Description: Activity of the Prolyl tRNA synthetase domain of EPRS (ProRS) was measured as ^3H Pro incorporation into the charged tRNA pool. […] Purified enzyme was visualized as a single band by Laemmli gel electrophoresis/Coomassie staining.
Purified enzyme was visualized as a single band by Laemmli gel electrophoresis/Coomassie staining. […] In preliminary experiments, the assay was established to be linear over the time (6 min) and conditions used (30 degrees, 2 mM ATP, 1 μg/μl total tRNA purified from rabbit liver).
For the rapid, quantitative isolation of aminoacylated tRNA^pro from synthetase reaction mixtures, reactions were stopped with 100 μl of ice cold 20 mM MOPS pH6.2, 200 mM NaCl, 10 mM EDTA, 30% Glycerol and placed on ice. Samples were added to 15 μl of packed Mono Q HP beads (GE Healthcare) equilibrated in the same buffer. Samples were incubated with beads on ice for 10 min, beads were pelleted by 5 sec centrifugation in a tabletop microfuge and washed 3× 1 ml of wash buffer (20 mM MOPS pH6.2, 50 mM NaCl), and recovered pellets counted in a liquid scintillation counter. Background binding of ^3H Pro to beads (using reaction mix with either no enzyme added or no tRNA added) was negligible (20-40 cpm).

[4] = Anti-HF ELISA of intracellular HF levels; assay type: in vitro ADME, mouse
Description: MEFs were incubated with the indicated concentration of HF in the presence or absence of 2 mM proline for 2 hours, washed twice in cold PBS, and lysed in 1% NP40. Lysates were then tested for HF levels in comparison to a standard curve using known concentrations of HF with an anti-HF antibody based ELISA assay (see Examples). […] Similar results were obtained in three separate experiments.
Polyclonal anti-HF antibody was raised by immunizing rabbits with KLH coupled to an HF derivative (MAZ1356, FIG. 1) containing a linker attached to the quinazolinone and terminated by a primary amino group. Antibody was affinity purified using MAZ1356 linked to NHS-agarose. For the ELISA assay (FIG. 17), MAZ1356 was coupled to 96-well Reacti-bind Plates (Pierce). After binding, plates were blocked with 10% goat serum in PBS/0.2% Tween-20 (PBST). […] Captured antibody was quantitated using TMB based colorimetric detection (Pierce), and a standard curve for HF concentration fitted from the colorimetric data. […] To determine HF concentration in cells, 8 μl of cleared lysate (or control buffer) was incubated with anti-HF antibody in MAZ1356 bound wells, and captured antibody detected and quantitated as described above. HF concentration was then determined by fitting colorimetry results with cell samples to a standard curve of HF concentration. […]

[5] = inhibitor 1 μM, anti-myc Western blot, FIG. 2C

With `O=C(C[C@H]1NCCC[C@@H]1O)Cn1cnc2cc(Br)c(Cl)cc2c1=O` (racemic) [HF, 7-bromo-6-chloro-3-[3-(3-hydroxy-2-piperidinyl)-2-oxopropyl]-4(3H)-quinazolinone] the “inhibition of mTORC1 signaling / downstream targets” value (mTORC1 signaling in MEFs) was “without concomitant inhibition”, the “inhibition of mTORC1 signaling / downstream targets” value (mTORC1 signaling in MEFs; listed as halofuginone) was “does not directly inhibit” and the “translation of Nopropep (proline-free polypeptide)” value [1, 5] was “no effect”. For the same molecule, the “translation of Propep (proline dipeptide containing polypeptide)” value [1, 5] was “prevent translation”, the “inhibition of translation of luciferase RNA in RRL” value ([1]; luminescence assay, FIG. 2A/2B) was “inhibited” and the “incorporation of 14C-Pro into tRNA” value [2] was “inhibited”. For the same molecule, the “inhibition of ProRS activity” value [3] was “inhibits”, the “effect of proline addition on intracellular accumulation of HF” value ([4]; 2 mM proline, 2 hours, FIG. 17) was “not affected” and the “absolute HF concentration inside cells” value ([4]; MEFs incubated with 20 nM HF for 2 hours, packed cell volume estimated as 4 μl) was roughly 800 nM.
